Experimental data taken from patent publication US20250170098A1, “MOLECULAR JACKHAMMER FOR MECHANICAL DESTRUCTION OF CELLULAR STRUCTURE” (William Marsh Rice University, priority 2022, published 2025).

Columns and labels:
A375 cells [1] = assay: Clonogenic assay; format: cell-based, human
Experimental: The clonogenic assay was conducted to confirm that cancer cells treated by plasmon-driven MJH are indeed death upon NIR-light activation (FIG. 18). Three molecules were analyzed: the most VDA active BL-204, medium active BL-141-2 and low active Cy7-amine. […] This was accomplished by incubating the MJH molecules with the A375 cells for 50 min and immediately activate the plasmon-driven MJH using 730 nm NIR-light at 80 mW/cm^2 for 10 min. This is considered a short contact time between the MJH and the A375 cells.
Clonogenic assay. A375 cells were seeded in 35 mm cell culture dishes at predetermined densities to allow for an approximately equal number of resultant colonies. The next day, cells were treated with Cy7.5-amine at variable concentration and with or without 730 nm light at 80 mWcm^−2 for 10 min. The cells were incubated with Cy7.5-amine for 50 min before the illumination, the media was replaced with fresh media after the illumination and cells were cultured for 6 days to allow for colony formation. Cells were then washed once with PBS and fixed-stained in a 0.5% (w/v) crystal violet in methanol/water solution (1:1) during 10 min. The excess of crystal violet was washed off with water, the plates were dried at room temperature and then the colonies were counted using ImageJ software version 1.52a, and the survival fraction was determined. All treatments were in triplicate.

A375 cells [2] = assay: Crystal violet cell viability assay; format: cell-based, human; conditions: 2 μM; 10 min 730 nm light at 80 mW/cm^2
Experimental: Crystal violet cell viability assay. The crystal violet assay was used to measures the cell viability. The principle of this method is that the viable cells adhere to the surface of the cell culture dish and keep growing and remain attached through the standard cell culture conditions during a period of 1-2 days and through the staining conditions in the assay. […] For specific details, A375 cells were harvested and counted, and then 20,000 A375 cells per well were added in 24 cell culture well plate (Corning) and cultured for 1 day at standard incubation conditions of 37° C. and 5% CO2. The cells were treated in four experimental groups (4 samples per group): group 1) 0.1% DMSO, group 2) 0.1% DMSO+NIR light treatment, group 3) 2 μM Cy7.5-amine, and group 4) 2 μM Cy7.5-amine+NIR light. The treatments with 0.1% DMSO or 2 μM Cy7.5-amine were done by adding those respective concentrations to the cells in the media and then incubated for 60 min. Immediately after the incubation, the cells in the groups with “+NIR light”, were treated with 730 nm light at 80 mW/cm^2 for 10 min. After the treatment with NIR light, the media in all the groups was removed and fresh media was added. […] Then the crystal violet was quantified by its absorbance at 570 nm. The cell viability was calculated from the absorbance relative to the absorbance in the cells without any treatment. […]

B16-F10 melanoma tumors = assay: Treatment of B16-F10 melanoma tumors in C57BL/6 mice; format: in vivo, mouse
Experimental: Injection of B16-F10 cells subcutaneously in C57BL/6J mice to generate the melanoma tumors. The B16-F10 cells were cultured as described before. Cells were harvested from sub-confluent plates, ˜90%, and fresh media was added to the cells the day before harvesting. The cells were harvested using 0.05% trypsin-EDTA (Gibco, 25-300-054). The harvested cells were re-dispersed in DMEM media without supplements at 1×10^6 cells mL^−1. The cell suspension was kept in ice. Then 100 μL of cells were injected per mouse (this was 100,000 cells per mouse) subcutaneously in the right flank of a 7-8-week-old female mouse (C57BL/6J), in which the hair in the right flank was previously depilated using a shaver. […] Starting at day 12 the tumors were measured using a caliper. […] The volume of the tumor was calculated as: (½)×length×width×height. When the height was not possible to measure in the case of the tumors which were too small (usually <100 mm^3), then the tumor volume was calculated as: (½)×length×width^2. […]
Treatment of B16-F10 tumors with Cy7.5-amine and NIR 730 nm light. […] The light intensity was measured using an Optical Power Meter from Thorlabs, sensor model S302C and console model PM100D. While under light treatment the temperature at the tumor area was measured using an IR thermal camera (Model: Compact Seek Thermal for Android. Seek Thermal, Inc. Santa Barbara, CA). […]

## CN1/C(=C\C=C2C=C(/C=C/C3=[N+](CCCCCC(=O)NCCCCCCN)c4ccc5ccccc5c4C3(C)C)CCC\2)C(C)(C)c2c1ccc1ccccc21 [Cy7.5-amine]
A375 cells [1]; 0.5 μM, 10 min 730 nm light at 80 mWcm^−2
  cells eradicated, clonogenic assay: 100%
A375 cells [1]; 1 μM + light (80 mWcm^−2 of 730 nm for 10 min)
  eradication of A375 cells, clonogenic assay (in words): complete eradication
A375 cells [2]
  dead cells by crystal violet assay: 99.9%
B16-F10 melanoma tumors; 8 μg in 50 μL PBS intratumorally, 730 nm LED at for 5 min
  size of the B16-F10 tumors: significantly reduced
B16-F10 melanoma tumors; Cy7.5-amine with light, for 5 min
  temperature increase of B16-F10 tumors under light treatment: ~5 °C
